Where a name gives a salt, the structure may show the parent alone. Activity calls are given as the source filed them. The calls are words filed in the database; no cut-off is given here.
Assays:
[1] = molecular target: T1, Human immunodeficiency virus type 1 reverse transcriptase (Human immunodeficiency virus 1, UniProt Q72547); experiment: The compound was evaluated for the inhibition of HIV-1 reverse transcriptase
[2] = The compound was evaluated for antiviral activity using whole cell assay; type: functional
[3] = molecular target: T1, Human immunodeficiency virus type 1 reverse transcriptase; experiment: The compound was evaluated for the inhibition of HIV-1 reverse transcriptase; Inactive
[4] = The compound was evaluated for antiviral activity using whole cell assay; Inactive; type: functional

| IC50 [1] [nM] | IC90 [2] [nM] | SMILES | IC50 [3] | IC90 [4] |
| --- | --- | --- | --- | --- |
| 35900 | 279 | O=S1(=O)Nc2ccc(Cl)cc2C(C#CC2CC2)(C2CC2)N1 (stereo not drawn) |  |  |
| 24700 | 284 | O=S1(=O)Nc2ccc(F)c(F)c2C(C#CC2CC2)(C(F)(F)F)N1 (stereo not drawn) |  |  |
| 137 | 643 | CC(C)C#CC1(C(C)C)NS(=O)(=O)Nc2ccc(Cl)cc21 (stereo not drawn) |  |  |
|  | 1.7 | O=C1Nc2ccc(Cl)cc2[C@@](C#CC2CC2)(C(F)(F)F)O1 [EFAVIRENZ] |  |  |
| 31 | 2 | O=C1Nc2ccc(Cl)cc2[C@@](C#CC2CC2)(C(F)(F)F)N1 |  |  |
|  |  | O=S1(=O)Nc2ccc(Cl)cc2C(C#Cc2ccccc2)(C2CC2)N1 (stereo not drawn) | Not Active | inactive |
|  | 50 | CC(C)Nc1cccnc1N1CCN(C(=O)c2cc3cc(NS(C)(=O)=O)ccc3[nH]2)CC1 [DELAVIRDINE MESYLATE] |  |  |
|  |  | O=S1(=O)Nc2ccc(Cl)cc2C(C#Cc2ccccn2)(C2CC2)N1 (stereo not drawn) | Not Active | inactive |
| 4630 | 182 | CC(C)C#CC1(C2CC2)NS(=O)(=O)Nc2ccc(Cl)cc21 (stereo not drawn) |  |  |

| SMILES | IC50 [1] [nM] | IC90 [2] [nM] | IC50 [3] | IC90 [4] |
| --- | --- | --- | --- | --- |
| Cc1ccnc2c1NC(=O)c1cccnc1N2C1CC1 [NEVIRAPINE] |  | 37 |  |  |
| CCC#CC1(C(C)C)NS(=O)(=O)Nc2ccc(Cl)cc21 (stereo not drawn) |  | 961 | Not Active |  |
| CC(C)C1(C#CC2CC2)NS(=O)(=O)Nc2ccc(Cl)cc21 (stereo not drawn) |  | 677 | Not Active |  |
| CCC#CC1(C2CC2)NS(=O)(=O)Nc2ccc(Cl)cc21 (stereo not drawn) |  | 611 | Not Active |  |
